The record followed here is patent US11884647B2, “Compounds and methods for targeting pathogenic blood vessels” (THE REGENTS OF THE UNIVERSITY OF CALIFORNIA, priority 2019, dated 2024).

Test [1] concerns tumor endothelial cells (CT26.CL25 colon cancer tumor). The experiment in a line: Colon CT26 ex vivo model of tumor angiogenesis. The class given is cell-based. Particulars: Mus musculus, CT26, 48 h, read-out: Cell death. The method, then:
This example describes a procedure to prepare a primary tumor angiogenesis model for assessing the efficacy of anti-cancer candidate agents.
1. The day before the experiment, spray all necessary tools with 70% ethanol and sterilize them under UV light overnight, including blade, dissecting and micro-dissecting scissors and […]. Place 24-well dishes at 4° C. to pre-chill plates and thaw Matrigel 24 hours before tumor dissection.
2. Spray 70% ethanol on working bench. Prepare two sterile petri dishes with 10 mL sterile PBS. Steps 3 and 4 are for mouse tumor models. For fresh human tumor, directly go to step 5.
3. Euthanize the tumor-bearing mice. Spray 70% ethanol on the mouse and remove the tumor using sterilized dissecting tools (avoid the fur). Rinse the tumor in petri dish with sterile PBS to remove ethanol and fur. Transfer the tumor to a new petri dish with PBS for dissection. Place the dish on ice.
4. Using pre-chilled sterile pipet tips to seed regular Matrigel in 24 well plates on ice. Matrigel (30 μL) is dropped in the middle of each well without touching the edge of the well (avoid introducing bubbles if possible).
5. Cut the tumor in halves using the sterile blade. Identify and isolate healthy tumor tissue that is not necrotic and is within the tumor capsule. Cut the healthy tumor tissue into small pieces. For instance, a suitable size for the tumor tissue is 0.5 mm (H)×0.5 mm (L)×0.3 mm (D) with a total volume of 0.075 mm^3.
6. Gently transfer and embed each tumor piece in the Matrigel drop in the 24-well plate. Place the embedded piece in the bottom and middle of each Matrigel drop. Keep the plate on ice all the time.
7. After seeding the tumor pieces, plates are incubated in a 37° C. cell culture incubator without medium for 10 minutes in order for the Matrigel to solidify.
8. Endothelial Growth Medium (0.5 mL) is added to each well and incubated at 37° C. with 5% CO2. Wait until the new endothelial cells have grown out of the tumor or are larger than 3 mm in diameter until treatment. This usually takes 4 days for the LL2 Lewis lung cancer model and 7 days for the CT26 colon cancer model. For human tumor models, the growth time is typically 2-3 weeks, depending on the tumor type. Media is changed every 4 days during prolonged culture. Typically, when the tumor tissue grows to 2 mm in diameter, it is good for drug testing. A size of about 3 mm in diameter can make visualization easier.
9. When the assay is ready to be analyzed for cell death (e.g., 48 hours after drug addition), prepare the dye mixture by mixing 6 μL of green dye to stain live cells (5 mg/mL Fluorescein diacetate or FDA in DMSO) with 30 μL of red dye (2.5 mg/mL Propidium iodide or PI in PBS) to stain dead cells in an Eppendorf tube. The FDA dye needs to be stored frozen in a −20° C. freezer because it has a labile ester bond.
10. Add 1 μL of the dye mixture to each well of the 24-well dish. It is usually performed one 24-well dish at a time given the amount of time needed to take pictures (the green dye is not as stable in the cells in the long term).
11. Gently rock the dish a few times to mix the dye with the media in the wells and incubate the dish at 37° C. for 10 min (too long incubation can make the green signal too intense).
12. Wash each well with 0.5 mL of sterile PBS and then add 0.5 mL of phenol red free SFM to each well. Alternatively 0.5 mL of regular Endothelial Cell Growth Media can be added to each well if this well needs to be continuously maintained after the experiment.
13. Look through all wells on an inverted microscope using the 2× objective lens to observe morphological changes.
14. Taking pictures in the red and green channels would allow not only the recording of the result but also more accurate quantitation of the result. To take pictures for all the wells, first pick a well that has robust red and green signals. […]

Test [2] relates to tumor endothelial cells (LL/2 lung cancer tumor). The experiment in a line: Lung LL2 ex vivo model of tumor angiogenesis. The class given is cell-based, mouse. Particulars: for cytotoxicity at 20 µM / cytotoxicity at 40 µM: Mus musculus, Endothelial cell, 48 h, read-out: Cell death. In short, it runs like this: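 Mouse LL2 tumor fragments (~0.5×0.5×0.3 mm) embedded in Matrigel and grown in endothelial growth medium at 37° C until endothelial outgrowth (about 4 days) before drug treatment. About 48 h after drug addition, stained 10 min with fluorescein diacetate/propidium iodide; live (green) and dead (red) cells imaged at 2× with fixed channel settings.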

[3] abbreviates: Lung LL2 ex vivo, Conc. 20 μm, (24 hrs).

For the compound `COc1ccc(S(=O)(=O)c2cnc3ccc(OC(F)(F)F)cc3c2N2CCC(O)(c3cccc(OC)c3)CC2)cc1` [compound 150, 4-(3-methoxyphenyl)-1-(3-((4-methoxyphenyl)sulfonyl)-6-(trifluoromethoxy)quinolin-4-yl)piperidin-4-ol], the cytotoxicity at 40 µM in test [1] was 10%. For the compound `CCc1ccc(S(=O)(=O)c2cnc3ccc(OC(F)(F)F)cc3c2N2CCC(O)(c3ccc(OC)cc3)CC2)cc1` [compound 145, 1-(3-((4-ethylphenyl)sulfonyl)-6-(trifluoromethoxy)quinolin-4-yl)-4-(4-methoxyphenyl)piperidin-4-ol], the cytotoxicity at 40 µM in test [1] was found to be 30%.

Turning to `CCOC(=O)c1ccc2ncc(S(=O)(=O)c3ccc(CC)cc3)c(N3CCCC(O)C3)c2c1` (stereo not drawn) [compound 135, ethyl 3-((4-ethylphenyl)sulfonyl)-4-(3-hydroxypiperidin-1-yl)quinoline-6-carboxylate], in test [1], the cytotoxicity at 40 µM worked out at 30%. Still for that read-out and setting: the result for `CCc1ccc(S(=O)(=O)c2cnc3ccc(OC(F)(F)F)cc3c2N2CCC(O)(c3ccc4c(c3)OCO4)CC2)cc1` [compound 147, 4-(benzo[d][1,3]dioxol-5-yl)-1-(3-((4-ethylphenyl)sulfonyl)-6-(trifluoromethoxy)quinolin-4-yl)piperidin-4-ol] reads 0%; that for `CCOC(=O)c1ccc2ncc(S(=O)(=O)c3ccc(OC)cc3)c(N3CCCN(C)CC3)c2c1` [compound 144, ethyl 3-((4-methoxyphenyl)sulfonyl)-4-(4-methyl-1,4-diazepan-1-yl)quinoline-6-carboxylate], 30%; that for `CCOC(=O)c1ccc2ncc(S(=O)(=O)c3ccc(OC)cc3)c(N3CCCN(CCN(CC)CC)CC3)c2c1` [compound 139, ethyl 4-(4-(2-(diethylamino)ethyl)-1,4-diazepan-1-yl)-3-((4-methoxyphenyl)sulfonyl)quinoline-6-carboxylate], 40%.

Consider `CCc1ccc(S(=O)(=O)c2cnc3ccc(OC(F)(F)F)cc3c2N2CCC(O)(c3cccc(OC)c3)CC2)cc1` [compound 146, 1-(3-((4-ethylphenyl)sulfonyl)-6-(trifluoromethoxy)quinolin-4-yl)-4-(3-methoxyphenyl)piperidin-4-ol], for which the cytotoxicity at 40 µM in test [1] amounted to 0%. Consider `CCOC(=O)c1ccc2ncc(S(=O)(=O)c3ccc(CC)cc3)c(N3CCCN(CCN(CC)CC)CC3)c2c1` [compound 131, ethyl 4-(4-(2-(diethylamino)ethyl)-1,4-diazepan-1-yl)-3-((4-ethylphenyl)sulfonyl)quinoline-6-carboxylate], for which the cytotoxicity at 40 µM in test [1] turned out to be 50%.

With `CCOC(=O)c1ccc2ncc(S(=O)(=O)c3ccc(CC)cc3)c(N3CCC(O)(c4cccc(OC)c4)CC3)c2c1` [compound 149, ethyl 3-((4-ethylphenyl)sulfonyl)-4-(4-hydroxy-4-(3-methoxyphenyl)piperidin-1-yl)quinoline-6-carboxylate], the cytotoxicity at 40 µM in test [1] stood at 20%.

As to `CCOC(=O)c1ccc2ncc(S(=O)(=O)c3ccc(OC)cc3)c(N3CCCC(O)C3)c2c1` (stereo not drawn) [compound 137, ethyl 4-(3-hydroxypiperidin-1-yl)-3-((4-methoxyphenyl)sulfonyl)quinoline-6-carboxylate], in test [1], the cytotoxicity at 40 µM stood at 40%. `CCCCOc1ccc(S(=O)(=O)c2cnc3ccc(SC)cc3c2N2CCCN(CCN3CCCC3)CC2)cc1` [compound 207, 3-((4-butoxyphenyl)sulfonyl)-6-(methylthio)-4-(4-(2-(pyrrolidin-1-yl)ethyl)-1,4-diazepan-1-yl)quinoline]: the cytotoxicity at 40 µM in test [1] amounted to 100%. For the compound `CCCCOc1ccc2ncc(S(=O)(=O)c3ccc(OC)c(OC)c3)c(N(CC)CC)c2c1` [compound 123, 6-butoxy-3-((3,4-dimethoxyphenyl)sulfonyl)-N,N-diethylquinolin-4-amine], the cytotoxicity at 40 µM in test [1] came out at 20%. As for `CCOC(=O)c1ccc2ncc(S(=O)(=O)c3ccc(CC)cc3)c(N3CCC(N4CCC(O)CC4)CC3)c2c1` [compound 130, ethyl 3-((4-ethylphenyl)sulfonyl)-4-(4-hydroxy-[1,4′-bipiperidin]-1′-yl)quinoline-6-carboxylate], the cytotoxicity at 40 µM in test [1] was 40%. As for `CCc1ccc(C2(O)CCN(c3c(S(=O)(=O)c4ccc(OC)cc4)cnc4ccc(OC(F)(F)F)cc34)CC2)cc1` [compound 129, 4-(4-ethylphenyl)-1-(3-((4-methoxyphenyl)sulfonyl)-6-(trifluoromethoxy)quinolin-4-yl)piperidin-4-ol], the cytotoxicity at 40 µM in test [1] was found to be 0%. For `CCOC(=O)c1ccc2ncc(S(=O)(=O)c3ccc(CC)cc3)c(N3CCC(O)(c4ccc(OC)cc4)CC3)c2c1` [compound 148, ethyl 3-((4-ethylphenyl)sulfonyl)-4-(4-hydroxy-4-(4-methoxyphenyl)piperidin-1-yl)quinoline-6-carboxylate], the cytotoxicity at 40 µM in test [1] amounted to 0%. The same measure, in the same setting: the result for `CN1CCCN(c2c(S(=O)(=O)c3ccc([N+](=O)[O-])cc3)cnc3ccc(OC(F)(F)F)cc23)CC1` [compound 60, 4-(4-methyl-1,4-diazepan-1-yl)-3-((4-nitrophenyl)sulfonyl)-6-(trifluoromethoxy)quinoline] reads 5%; that for `CCOC(=O)c1ccc2ncc(S(=O)(=O)c3ccc(CC)cc3)c(N3CCC(OCCN(CC)CC)CC3)c2c1` [compound 132, ethyl 4-(4-(2-(diethylamino)ethoxy)piperidin-1-yl)-3-((4-ethylphenyl)sulfonyl)quinoline-6-carboxylate], 40%; that for `CCOC(=O)c1ccc2ncc(S(=O)(=O)c3ccc(OC)cc3)c(N3CCC(N4CCCCC4)CC3)c2c1` [compound 136, ethyl 4-([1,4′-bipiperidin]-1′-yl)-3-((4-methoxyphenyl)sulfonyl)quinoline-6-carboxylate], 30%. On to `CCCCCCCCCCCCOc1ccc(S(=O)(=O)c2cnc3ccc([S+](C)[O-])cc3c2N2CCC(N3CCC(N4CCCC(O)C4)CC3)CC2)cc1` (stereo not drawn) [compound 343, 1″-(3-((4-(dodecyloxy)phenyl)sulfonyl)-6-(methylsulfinyl)quinolin-4-yl)-[1,4′:1′,4″-terpiperidin]-3-ol], for which, in test [2], the cytotoxicity at 20 µM was 50%. With `CCCCCCCCCCOc1ccc(S(=O)(=O)c2cnc3ccc([S+](C)[O-])cc3c2N2CCC(N3CCN(CCO)CC3)CC2)cc1F` (stereo not drawn) [compound 291, 2-(4-(1-(3-((4-(decyloxy)-3-fluorophenyl)sulfonyl)-6-(methylsulfinyl)quinolin-4-yl)piperidin-4-yl)piperazin-1-yl)ethan-1-ol], in test [2] (setting [3]), the “Cell death (24 hrs)” value was 10% and the “Morphology observations (24 hrs)” value was “* (50% or less of cells vesicularize in cell shape)”. In the case of `CCCCOc1ccc(S(=O)(=O)c2cnc3ccc(S(C)(=O)=O)cc3c2N2CCC(N3CCCCC3)CC2)cc1` [compound 169, 4-([1,4′-bipiperidin]-1′-yl)-3-((4-butoxyphenyl)sulfonyl)-6-(methylsulfonyl)quinoline], the cytotoxicity at 20 µM in test [2] was found to be 40%.

`COc1ccc(S(=O)(=O)c2cnc3ccc(C(=O)N(C)C)cc3c2N2CCC(N3CCCC3=O)CC2)cc1` [compound 332, 3-((4-methoxyphenyl)sulfonyl)-N,N-dimethyl-4-(4-(2-oxopyrrolidin-1-yl)piperidin-1-yl)quinoline-6-carboxamid]: the cytotoxicity at 40 µM in test [2] was found to be 0%. Regarding `CCCCOc1ccc(S(=O)(=O)c2cnc3ccc(C(=O)OCC)cc3c2N2CCC(N3CCCC(O)C3)CC2)cc1` (stereo not drawn) [compound 177, ethyl 3-((4-butoxyphenyl)sulfonyl)-4-(3-hydroxy-[1,4′-bipiperidin]-1′-yl)quinoline-6-carboxylate], the cytotoxicity at 40 µM in test [2] amounted to 100%.
